# According to patent US5770688A, “Method and composition for the treatment of mammalian HIV infection” (GSF-Forschungszentrum fur Umwelt und Gesundheit GmbH, priority 1989, dated 1998):
# Entries after “also recorded” stand apart in the source; their conditions may differ.
# Key:
# reverse transcriptase = experiment: activity of reverse transcriptase in the supernatant of treated, HIV infected cell culture; assay type: cell-based
# Description: Referring more particularly to FIGS. 1-4, melittin (Seq. ID NO:1) and its specified analogues were tested for their effect on HIV-infected T-lymphoma cells. In this regard the following cell lines were employed in the testing: KE37-1 (uninfected) and KE37-1/111S (infected with HTLV-111β). These infected cells were incubated for a period of seven days under test conditions at a temperature of 37° C. and in the presence of 5% CO2. A culture medium of RPMI 1640 (GIBCO) was employed and was further supplemented with 10% fetal calf serum which contained approximately 100 units of penicillin, 100μ of streptomycin, and approximately 0.25μ fungizone (Amphotericin B) per milliliter. This equals 1 milliliter of antibiotic-antimycotic solution (GIBCO Catalogue No. 043-05240 per 100 ml. of medium.) After a one week incubation period in the presence of various concentrations of the above-identified substances, which were added fresh daily to the medium, the following tests were carried out with the cultures. A first test was conducted for purposes of determining the relative cell concentration as a function of the number of HIV infected cells present by employing an MTT test. […] The optical density (OD) of the solution was determined at=600 nm. […]
# HIV = HIV release from chronically infected cells (Biomek 1000); assay type: cell-based; settings: FIGS. 6-19
# Description: A series of experiments and which are illustrated graphically in FIGS. 6 through 34, respectively, were designed to detect two extremes. In particular the tests were designed to detect the inhibition of viral release and/or the release of virus which has a reduced ability to infect other cells. This reduced ability to infect other cells is represented, for example, by glycosylation inhibitors, the direct effect on virus release is represented by acylation inhibitors, RT inhibitors and melittin (Seq. ID NO:1). The most important feature of this experimental design, however, is to detect the toxicity of melittin. The present experiments were carried out on both the astrocytoma cell line LC5-HIV (cloned infected cells) and T-lymphocytoma cell line KE37-1/IIIβ (cloned infected cells with HTLV-IIIβ). In both cases the results were essentially identical.
# In the present series of experiments HIV release was tested by a fully automated laboratory robot system and which is manufactured by Beckman Instruments as the Biomek 1000. This system performed the following steps. First, chronically infected cells (cloned) are plated in microtiter plates and grown for a period of seven days. They are then challenged by melittin (Seq. ID NO:1) during this period either for the final day or throughout the period as shown in the figures. The number of living cells are quantified by MTT, that is by a metabolic (dehydrogenase) test. The MTT test is automatically performed. The toxic effect is detected at the time of the experiment and not in a separate control experiment. Furthermore, the supernatant, and which contains released virus cells from the period of time which elapsed from the last wash, and which may vary from 24 hours to 7 days, is collected from the culture, and an aliquot is saved for virus quantification by employing antigen or viral enzyme reverse transcriptase (RT). Furthermore, an aliquot is added to a culture of uninfected cells in microtiter plates for subsequent measurement of the ability of the virus cells to reinfect these uninfected cells. In this regard, the number of infected cells is automatically quantified by an immunoperoxidase staining technique. The test results, as shown, are expressed in terms of toxicity of the melittin (MTT test); the release of HIV from the primary culture (RT test); and the ability of the released virus to infect previously uninfected cells.
# [1] = disappearance of melittin from culture medium / uptake by cells; assay type: in vitro ADME
# Description: This means, in essence, that the effect of melittin (Seq. ID NO:1) on the virus is to attack the virus before it is released from an infected cell although it is possible that a reduction in virus numbers may be possible during and immediately after the addition of melittin to a cell culture or otherwise. […] At this point in time, melittin is absent from the culture. […] This observation excludes any effect in the experiments to be explained by a direct effect of melittin on "cell free" virus, that is, virus released into the supernatant.
# These characteristics appear to be due to the specific structure of the melittin amphiphilic helix. […] In this regard, treatment was at cultivation start, and measurement of infectivity was seven days post treatment. As was discussed earlier, maximum virus concentration in cultures of this type is not achieved for five days after cultivation. As should be understood and the conclusions which the inventors have drawn from same is that if the reduced viral infectivity seven days post treatment were only due to direct effects of melittin on the virus, then in that event, the melittin or an active fragment would have to be present as late as five days post treatment. […] Moreover, and if the reduction and supernatant infectivity was partly due to reduced virus production as opposed to incorrect virus assembly or destruction of newly synthesized virion, then, in that event, this should be reflected by reduced amounts of viral proteins within the cells and/or in their supernatants of the melittin treated cultures. To determine whether this hypothesis is correct the inventors chose the P24 marker as a marker for viral protein production. […] However, following fourteen hours of incubation with melittin, there is a marked reduction of P24 within the cells as well as in the supernatant (down to 60%).
# cell free HIV = experiment: influence of melittin on cell free HIV (P24 determination, infectivity); settings: incubation of cell free HIV
substance,measurement,setting,value
Gly-Ile-Gly-Ala-Val-Leu-Lys-Val-Leu-Thr-Thr-Gly-Leu-Pro-Ala-Leu-Ile-Ser-Trp-Ile-Lys-Arg-Lys-Arg-Gln-Gln-Amide [melittin],activity of reverse transcriptase (RT%),"reverse transcriptase; 2.5 μg per ml, FIG. 2",revert substantially back to zero
same,"activity of reverse transcriptase, in words",reverse transcriptase; subtoxic concentrations,inhibition of reverse transcriptase
same,"inhibition of viral cell (HIV) release from infected cells, in words",HIV,inhibition of viral cell release from infected cells; also recorded: inhibited HIV release
same,absorption by the cell,[1]; after introduction to the culture,absorbed by the cell within hours after introduction to the culture
same,half-life of melittin,[1]; cell culture,19 h
same,melittin in the medium,[1]; two hours after addition to the culture,not measurable in the medium two hours after addition to the culture
same,detection of the P24 antigen,cell free HIV,does not impair the detection of the P24 antigen
same,virus infectivity of cell free HIV,cell free HIV,cause the virus infectivity to be reduced
